Data published in publication PMC3502511, “Inhibition of the Prokaryotic Pentameric Ligand-Gated Ion Channel ELIC by Divalent Cations” (PLoS Biology, 2012).

Target: T1, ELIC D158A (Dickeya chrysanthemi, UniProt P0C7B7, D158A/INS163G)
T1 construct: expressed in transfected cells; host or cells: X. laevis oocytes
Experiment: Two-electrode voltage clamp, ELIC D158A in oocytes
Assay type: cell-based, Erwinia chrysanthemi
Conditions: agonist cysteamine
Experimental: Constructs containing the gene of either the WT or mutant channels preceded by the signal sequence of the chicken α7nAchR were cloned into the pTLN vector for expression in X. laevis oocytes. After linearization of the plasmid DNA by MluI, capped complementary RNA was transcribed with the mMessage mMachine kit (Ambion) and purified with the RNeasy kit (Qiagen). For expression, 1–50 ng of RNA was injected into defolliculated oocytes. Two-electrode voltage clamp measurements were performed 1 d after injection at 20°C (OC-725B, Warner Instrument Corp.). Currents were recorded in bath solutions containing 10 mM HEPES (pH 7), 130 mM NaCl, and the indicated concentrations of cysteamine and divalent cations. In case of solutions containing Zn^2+, cysteamine was replaced by propylamine. The membrane potential in all dose–response measurements was set to −40 mV. As ELIC is permeable to divalent cations, we tested if endogenous calcium-activated chloride channels affected our measurements. To chelate intracellular calcium ions, the oocytes were incubated for 15 to 30 min in bath solutions lacking divalent ions but containing 10 µM BAPTA-AM.

With `NCCS` [cysteamine] as the molecule, how does the EC50 (Ca^2+ 0 mM) read?
Its EC50 is 1.78 mM.

And the EC50 (Ca^2+ 1 mM)?
Its EC50 is 1.79 mM.

And the EC50 (Ca^2+ 5 mM)?
Its EC50 is 3.33 mM.

And the EC50 (Ca^2+ 10 mM)?
The EC50 was 5.43 mM.

What about the EC50 (Ca^2+ 20 mM) of the same molecule?
Its EC50 is 9.38 mM.
